Experimental data as given in US6686444B2, “Osteopontin derived chemotactic peptides and methods of use” (Children's Medical Center Corporation, priority 1996, dated 2004).

Legend:
osteosarcoma cells = experiment: Modified Boyden chamber chemotaxis of osteosarcoma cells; type: cell-based; settings: for Chemotactic activity (in words): osteosarcoma cells
Method: Purified OPN (˜0.5 mg) was digested with trypsin (2% w/w) in 0.2 ml of 50 mM NH4HCO3, pH 8.0, for 20 hours at 37° C. before treatment of the reaction products with 50 μl of 100% H2O+0.1% trifluoroacidic acid (TFA) and resolution of the peptides by HPLC chromatography on C-18 column (25×0.46 cm). After injection the column was washed for 10 min, followed by linear gradient elution from 100% H2O+0.1% TFA to 60% CH3CN+0.55% TFA over 120 min, with a second gradient from 60% CH3CN to 80% CN3CN over 30 min at a flow rate of 0.5 ml/min. The absorbance at 219 nm was recorded continuously by an on-line chart recorder/integrator using Gilson HM Holochrome detector, and fractions of 0.5 ml were collected. Each peak was then tested for mediation of chemotaxis or for its ability to inhibit OPN mediated chemotaxis using the chemotactic assay described in Example 4 below. Furthermore, each peak was also tested for its ability to promote attachment of CD44^+ or αvβx cells.
Positive peaks from tryptic digest were sequenced by gas-phase automated sequenator. Chemotactic peptides corresponding to the positive sequences were synthesized and the resulting synthetic peptides were then tested for their ability to promote either chemotaxis or to inhibit the chemotaxis to OPN as described in Example 4. Chemical synthesis of peptides provides a convenient method to test the sequence specificity and minimal length of the chemotactic peptides.
In a modified Boyden chamber, both surfaces of polycarbonate filters (pore size, 8 μm) were coated with gelatin (100 μg/ml, overnight) before 1×10^3 osteosarcoma cells were added in 500 μl to the upper chamber and incubated at 37° C. in the presence or absence of chemotactic agents in the lower chamber. After two hours, the membranes were fixed in methanol and stained with hematoxilin/toluidine blue. Responding cells on the lower surface of the filter were counted microscopically and evaluated in triplicates. Random migration was assessed by counting the number of cells that migrated to the lower surface of the filter when excess chemotactic molecule was added to the upper chamber.

peritoneal exudate cells = experiment: In vivo cellular migration into the peritoneum after intraperitoneal injection (peritoneal exudate, flow cytometry); parameters: species or system Mice
Method: Mice were injected intraperitoneally with varying dosages of K7 osteosarcoma-derived osteopontin. All injection volumes were 200 μl. Injections of vehicle alone (PBS) served as negative controls and vehicle plus 20 μg lipopolysaccharide (LPS) injections served as positive controls for elicitation of peritoneal exudates.
Mice were sacrificed by CO2-asphyxiation at varying times following injection. Immediately after sacrifice, peritoneal exudate was recovered by intraperitoneal injection and recovery of 10 mL PBS. The lavage procedure was performed twice on each mouse. Following this, red blood cells were lysed by hypotonic lysis with ACK lysis buffer (0.15 M NH4Cl, 1.0 mM KHCO3, 0.1 mM Na2EDTA, pH 7.4) for 5 minutes at room temperature, and the preparation was washed in DMEM, 5% FBS. Cells were resuspended in DMEM, 5% FBS for fluorescent antibody staining.
Each sample of cells to be analyzed for specific surface markers was suspended in DMEM, 5% FBS at a concentration of 0.2 to 1 million cells in 50 μl. Fluorescence-labeled antibodies were added at 1 μg/1×10^6 cells, and incubated with the cells for 30 minutes at 4° C. Samples were washed twice with 200 μl of PBS following antibody staining and fixed with 500 μl of 2% paraformaldehyde in PBS. Peritoneal exudate cells were analyzed by dual-color flow cytometry for expression of CD44 (PE), CD11b (Mac-1, FITC, macrophage marker), B220 (FITC, B-cell marker), and CD3 (FITC, T-cell marker). All antibodies were purchased from PharMingen and flow cytometric analysis was done using a Coulter EPICS flow cytometer. Controls for non-specific binding and single color controls were included.

[1] = Table 2, substance in lower chamber, upper chamber OPN
[2] = Table 2, substance in lower chamber, upper chamber PBS
[3] = Table 2, substance in lower chamber, upper chamber SP64
[4] = Table 2, substance in lower chamber, upper chamber peptide 51
[5] = Table 2, substance in upper chamber, lower chamber PBS
[6] = Table 3, substance in lower chamber, upper chamber Ab64
[7] = Table 3, substance in lower chamber, upper chamber OPN
[8] = Table 3, substance in lower chamber, upper chamber PBS
[9] = Table 3, substance in lower chamber, upper chamber peptide 51
[10] = Table 3, substance in upper chamber, lower chamber PBS
[11] = 6 hours after intraperitoneal injection
[12] = Table 4, substance in lower chamber, upper chamber OPN
[13] = Table 4, substance in lower chamber, upper chamber OPN(ct)
[14] = Table 4, substance in lower chamber, upper chamber OPN(nT)
[15] = Table 4, substance in lower chamber, upper chamber PBS, averages from at least three experiments
[16] = Table 4, substance in upper chamber, lower chamber PBS

| Molecule | Responding cells on the lower surface of the filter (osteosarcoma cells; [1]) | Responding cells on the lower surface of the filter (osteosarcoma cells; [2]) | Responding cells on the lower surface of the filter (osteosarcoma cells; [3]) | Responding cells on the lower surface of the filter (osteosarcoma cells; [4]) | Responding cells on the lower surface of the filter (osteosarcoma cells; [5]) | Chemotactic activity (in words) (osteosarcoma cells) | Responding cells on the lower surface of the filter (osteosarcoma cells; [6]) | Responding cells on the lower surface of the filter (osteosarcoma cells; [7]) | Responding cells on the lower surface of the filter (osteosarcoma cells; [8]) | Responding cells on the lower surface of the filter (osteosarcoma cells; [9]) | Responding cells on the lower surface of the filter (osteosarcoma cells; [10]) | Responding cells on the lower surface of the filter (osteosarcoma cells; [12]) | Responding cells on the lower surface of the filter (osteosarcoma cells; [13]) | Responding cells on the lower surface of the filter (osteosarcoma cells; [14]) | Responding cells on the lower surface of the filter (osteosarcoma cells; [15]) | Responding cells on the lower surface of the filter (osteosarcoma cells; [16]) | other results |
| --- | --- | --- | --- | --- | --- | --- | --- | --- | --- | --- | --- | --- | --- | --- | --- | --- | --- |
| KFHSHKDKLVLDPKSK (OTHER INFORMATION: Osteopontin Derived Peptide) [SP64] | 74 | 117 | 66 | 40 | 4 | – | – | – | – | – | – | – | – | – | – | – | – |
| LVLAPK (OTHER INFORMATION: Osteopontin Derived Peptide) [mutant of peptide 51 with aspartic acid replaced] | – | – | – | – | – | failed to induce chemotaxis | – | – | – | – | – | – | – | – | – | – | – |
| LVLDPK (OTHER INFORMATION: Osteopontin derived peptide) [peptide 51, chemotactic tryptic peptide of osteopontin, also synthesized] | 88 | 128 | 47 | 51 | 9 | showed chemotactic properties | 62 | 187 | 243 | 109 | 8 | – | – | – | – | – | Competition with OPN for the migration of cells (osteosarcoma cells): competes with OPN; Responding cells on the lower surface of the filter (osteosarcoma cells; Table 1, substance in lower chamber, upper chamber PBS): 68; Responding cells on the lower surface of the filter (osteosarcoma cells; Table 1, substance in lower chamber, upper chamber peptide 49): 83; Responding cells on the lower surface of the filter (osteosarcoma cells; Table 1, substance in lower chamber, upper chamber peptide 50): 56; Responding cells on the lower surface of the filter (osteosarcoma cells; Table 1, substance in lower chamber, upper chamber peptide 51): 32; Responding cells on the lower surface of the filter (osteosarcoma cells; Table 1, substance in lower chamber, upper chamber peptide 52): 78; Responding cells on the lower surface of the filter (osteosarcoma cells; Table 1, substance in lower chamber, upper chamber peptide 53): 62; Responding cells on the lower surface of the filter (osteosarcoma cells; Table 1, substance in upper chamber, lower chamber PBS): 13 |
| VLDPK (OTHER INFORMATION: Osteopontin Derived Peptide) [peptide E] | – | – | – | – | – | retains some chemotactic activity | – | – | – | – | – | – | – | – | – | – | Chemotactic activity (in words) (osteosarcoma cells; listed as VLDPK): retains some chemotactic properties |
| osteopontin [OPN] | 43 | 118 | 45 | 32 | 21 | chemotax toward | 51 | 94 | 217 | 65 | 14 | 43 | 58 | 115 | 98 | 21 | Dose of peak response of cellular infiltrate (peritoneal exudate cells; [11]): around 13 μg; Number of CD3+ and B220+ cells in the infiltrate (peritoneal exudate cells; [11]): only marginally elevated; Number of Mac-1+ cells in the infiltrate over basal levels (peritoneal exudate cells; [11]): increased fivefold; Cellular infiltrate in the peritoneum (in words) (peritoneal exudate cells; 6 hours after intraperitoneal injection, dose titration): dose dependent increase; Dose of peak CD44+ Mac1+ cell response (peritoneal exudate cells; intraperitoneal injection): around 7 μg; Peritoneal influx of cells (peritoneal exudate cells; intraperitoneal injection, mice): 1.16 million cells |
| OPN(ct): the C-terminal half of OPN after thrombin cleavage (protein) SKSRSFQVSDEQYPDATDEDLTSHMKSGESKESLDVIPVAQLLSMPSDQDNNGKGSHESSQLDEPSLETHRLEHSKESQESADQSDVIDSQASSKASLEHQSHKFHSHKDKLVLDPKSKEDDRYLKFRISHELESSSSEVN | – | – | – | – | – | chemotax toward | – | – | – | – | – | 74 | 31 | 76 | 117 | 156 | – |
